{"source": "paper PMC4827351", "about": "(Chemical Science, 2015)", "key": {"[1]": {"assay": "Sedimentation equilibrium analytical ultracentrifugation", "type": "physicochemical", "conditions": "10 mM sodium phosphate; for MW (sedimentation equilibrium, SEDPHAT): pH 7.4, 20 °C, global fit", "method": "Sedimentation equilibrium (SE) experiments were performed to determine the molecular weight of proHD6. The proHD6 samples were prepared as described in the SV experiments with modification. In a typical set of experiments, proHD6 solutions in Milli-Q water (≈100 μL) prepared in microcentrifuge tubes were lyophilized to dryness. An aliquot (110 μL, pre-filtered, 0.22 μm filter) of 10 mM sodium phosphate buffer adjusted to pH 7.4 was added to each tube to afford solutions with varying concentrations of proHD6 (30, 60, and 120 μM) and transferred to AUC sample cells. The pH of each solution was measured to confirm that each solution remained at pH 7.4. Based on the sedimentation coefficients obtained from the SV experiments, equilibrium profiles were obtained at rotor speeds of 30 000, 36 000, and 42 000 rpm. Once equilibrium was established, two scans with five replicates were recorded. The absorption wavelength for optical detection was 280 nm, and the instrument was maintained at 20 °C.\nThe details of the experimental setup and data analysis are reported elsewhere.[52] SEDNTERP[53] was employed to calculate the buffer viscosity (η), buffer density (ρ), and the partial specific volume (value of proHD6 at 20 °C) as described in the SV section. The molecular weight of proHD6 was determined by global fitting of the multispeed equilibrium data across all loading concentrations at pH 7.4 using SEDPHAT.[31] The Species Analysis model with mass conservation was employed for data analysis. The bottom of the sample sector was assigned as a floating parameter. To further evaluate whether each least-squares curve-fitting procedure converged to a global minimum, the alternate methods of Simplex, Marquardt–Levenberg, and simulated annealing were employed to assess any change in the global reduced chi-squared value.\nTable S5. Molecular weight fitting of SE data for proHD6 by using SEDPHAT.a 95% Confidence Standard Global Reduced Critical Chi-Squared\nSample MW (Da) Intervalb Deviationb Chi-Squared Valuec […]\na All samples were in 10 mM sodium phosphate, pH 7.4. Global fitting used partial specific volume (v) at 20 °C, a solvent density ( ρ) of 0.99967 g/mL, and a solvent viscosity (η) of 1.0061 cP. Viscosity units are in centipoise (cP) (1 poise = 1 gŸ[…] cm-1Ÿ[…]s-1). b Calculated from 1000 iterations of Monte-Carlo analysis. c Calculated at a 95% confidence level."}, "[2]": {"tested_on": "Salmonella enterica serovar Typhimurium", "assay": "SEM analysis of bacterial agglutination", "type": "cell-based", "conditions": "3 µM proHD6 treated with trypsin before incubation (trypsin inactivated with APMSF), 30 min, 50 mM Tris-maleate pH 6.4", "method": "Bacteria were grown aerobically at 37 °C overnight in LB media. The next morning the strains were subcultured and grown to mid-logarithmic phase in LB media. An aliquot of the bacteria (0.5–2 × 10^7 CFU mL^–1) was removed, sedimented by centrifugation (7000g × 2 min, 4 °C), washed twice with 50 mM Tris-maleate buffer, pH 6.4, and then resuspended in 0.5 mL of the 50 mM Tris-maleate buffer. The bacterial suspension was incubated at room temperature for 30 min with buffer control, 0.4 μM APMSF-inactivated trypsin, 3 μM proHD6, 3 μM trypsin-cleaved proHD6, or 3 μM HD6. Trypsin-cleaved proHD6 was prepared by incubating 30 μM proHD6 with 4 μM trypsin (Affimetrix, Santa Clara, CA) for 1 h at room temperature in 50 mM Tris-maleate buffer, pH 6.4. At the end of incubation, the trypsin was inactivated by addition of APMSF (p-amidinophenylmethylsulfonylfluoride HCl, Millipore, 25 μg mL^–1), and the mixture was added to the bacterial suspension. The APMSF-inactivated trypsin was similarly prepared, except that proHD6 was omitted from the preincubation. After a 30 min incubation, the treated bacterial suspensions were sedimented by centrifugation (7000g × 5 min, 4 °C), and the buffer supernatant was carefully removed. […]"}}, "data": [{"sequence": "EPLQAEDDPLQAKAYEADAQEQRGANDQDFAVSFAEDASSSLRALGSTRAFTCHCRRSCYSTEYSYGTCTVMGINHRFCCL (disulfide (positions not given here)) [proHD6, 81-residue propeptide of human α-defensin 6, recombinant, from His6-SUMO-proHD6]", "values": [{"measurement": "molecular weight in solution (sedimentation equilibrium, global analysis)", "setting": "[1]; pH 7.4, 20 °C, 30, 60, 120 µM proHD6, 30 000/36 000/42 000 rpm, A280, SEDPHAT, SD ±230 Da, 95% interval 15 059-15 946 Da", "result": "15 549 Da"}, {"measurement": "MW (sedimentation equilibrium, SEDPHAT)", "setting": "[1]; Sample 1", "result": 15176, "unit": "Da"}, {"measurement": "MW (sedimentation equilibrium, SEDPHAT)", "setting": "[1]; Sample 2", "result": 15351, "unit": "Da"}, {"measurement": "MW (sedimentation equilibrium, SEDPHAT)", "setting": "[1]; Sample 3", "result": 15549, "unit": "Da"}, {"measurement": "bacterial agglutination (SEM), trypsin-cleaved", "setting": "[2]", "result": "did not agglutinate S. Typhimurium unless it was treated with trypsin"}]}]}
